ChEMBL document CHEMBL1201862, “PubChem BioAssay data set” (2004)
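Cells were grown in 96-well plates and exposed to each compound for 48 hours at five concentrations; endpoints were interpolated linearly between bracketing concentrations, or set to the highest concentration if not reached. Abbreviation: GI50, concentration required for 50% inhibition of growth.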 Activity calls are given as the source filed them. No stated cut-off is given here; in the data, active = GI50 up to about 1.1 µM and inactive = higher.

Tests used:
Assay in all cases: inhibition of tumour cell growth, NCI panel, 48 h
[1] = tested on: ACHN
[2] = tested on: BT-549
[3] = tested on: COLO 205
[4] = tested on: HCT-116
[5] = tested on: HCT-15
[6] = tested on: HL-60
[7] = tested on: HT-29
[8] = tested on: M14
[9] = tested on: MOLT-4
[10] = tested on: OVCAR-3
[11] = tested on: RXF 393
[12] = tested on: SK-MEL-5
[13] = tested on: SK-OV-3
[14] = tested on: SR
[15] = tested on: TK-10
[16] = tested on: U-251
[17] = tested on: UO-31
[18] = tested on: NCI-H23
[19] = tested on: SF-295

## NC1CC(=O)c2sc(I)cc21 (stereo not given)
[1]
  GI50: > 100 µM (inactive)
[2]
  GI50: > 100 µM (inactive)
[3]
  GI50: > 100 µM (inactive)
[4]
  GI50: 78.9 µM (inactive)
[5]
  GI50: 35.8 µM
[6]
  GI50: 18.7 µM (inactive)
[7]
  GI50: > 100 µM (inactive)
[8]
  GI50: > 100 µM (inactive)
[9]
  GI50: 71.9 µM (inactive)
[10]
  GI50: > 100 µM (inactive)
[11]
  GI50: > 100 µM (inactive)
[12]
  GI50: > 100 µM (inactive)
[13]
  GI50: > 100 µM (inactive)
[14]
  GI50: 8.39 µM (inactive)
[15]
  GI50: > 100 µM (inactive)
[16]
  GI50: > 100 µM (inactive)
[17]
  GI50: > 100 µM (inactive)

## O=C1C(=Cc2cccc(Cl)c2)N=C(c2ccccc2)N1n1c(-c2ccccc2)nc2ccccc2c1=O
[1]
  GI50: 37.7 µM (inactive)
[2]
  GI50: 23.7 µM (inactive)
[3]
  GI50: 40 µM (inactive)
[4]
  GI50: 10.8 µM (inactive)
[5]
  GI50: 49.3 µM
[6]
  GI50: 24.2 µM (inactive)
[7]
  GI50: 37.2 µM (inactive)
[8]
  GI50: 22.7 µM (inactive)
[9]
  GI50: 23.4 µM (inactive)
[18]
  GI50: 20 µM (inactive)
[10]
  GI50: 28 µM (inactive)
[11]
  GI50: 33.5 µM (inactive)
[19]
  GI50: 39 µM (inactive)
[12]
  GI50: 32.4 µM (inactive)
[13]
  GI50: 47.2 µM (inactive)
[14]
  GI50: 37 µM (inactive)
[15]
  GI50: 95.5 µM (inactive)
[16]
  GI50: 28 µM (inactive)
[17]
  GI50: 34.4 µM (inactive)

## CC(C)CC(NC(=O)C(COc1ccc([N+](=O)[O-])cc1)Cc1ccccc1)C(=O)Nc1ccccc1 (stereo not given)
[1]
  GI50: 16.8 µM (inactive)
[2]
  GI50: 10.9 µM (inactive)
[3]
  GI50: 9.04 µM (inactive)
[4]
  GI50: 22.2 µM (inactive)
[5]
  GI50: 13.3 µM
[6]
  GI50: 10.3 µM (inactive)
[8]
  GI50: 9.53 µM (inactive)
[9]
  GI50: 22.1 µM (inactive)
[18]
  GI50: 13 µM (inactive)
[10]
  GI50: 41.1 µM (inactive)
[11]
  GI50: 16.3 µM (inactive)
[19]
  GI50: 11.2 µM (inactive)
[12]
  GI50: 7.83 µM (inactive)
[13]
  GI50: 13.8 µM (inactive)
[14]
  GI50: 41.5 µM (inactive)
[15]
  GI50: 11.5 µM (inactive)
[16]
  GI50: 12.6 µM (inactive)
[17]
  GI50: 7 µM (inactive)

## CC1=COC2=C(C)C(=O)C(=O)c3c(C)ccc1c32 [MANSONONE F]
[1]
  GI50: 8.3 µM (inactive)
[2]
  GI50: 14.2 µM (inactive)
[3]
  GI50: 2.55 µM (inactive)
[4]
  GI50: 2.61 µM (inactive)
[5]
  GI50: 2.43 µM
[6]
  GI50: 2.1 µM (inactive)
[7]
  GI50: 3.15 µM (inactive)
[8]
  GI50: 2.86 µM (inactive)
[9]
  GI50: 2.56 µM (inactive)
[18]
  GI50: 2.84 µM (inactive)
[10]
  GI50: 0.349 µM (active)
[11]
  GI50: 7.18 µM (inactive)
[19]
  GI50: 5.48 µM (inactive)
[12]
  GI50: 0.859 µM (active)
[13]
  GI50: 15.8 µM (inactive)
[14]
  GI50: 3.45 µM (inactive)
[15]
  GI50: 42.1 µM (inactive)
[16]
  GI50: 4.38 µM (inactive)
[17]
  GI50: 14.7 µM (inactive)

## C=C1C(=O)O[C@H]2C/C(C)=C/CC[C@@]3(C)O[C@](C)(CC[C@@H]3I)[C@@H](I)C[C@@H]12
[1]
  GI50: 7.03 µM (inactive)
[2]
  GI50: 4.75 µM (inactive)
[3]
  GI50: 3.39 µM (inactive)
[4]
  GI50: 2.92 µM (inactive)
[5]
  GI50: 2.4 µM
[6]
  GI50: 0.893 µM (active)
[7]
  GI50: 3.37 µM (inactive)
[8]
  GI50: 10.9 µM (inactive)
[9]
  GI50: 0.925 µM (active)
[18]
  GI50: 8.69 µM (inactive)
[10]
  GI50: 3.21 µM (inactive)
[11]
  GI50: 3.97 µM (inactive)
[19]
  GI50: 6.84 µM (inactive)
[12]
  GI50: 3.32 µM (inactive)
[13]
  GI50: 7.24 µM (inactive)
[14]
  GI50: 1.5 µM (inactive)
[15]
  GI50: 6.03 µM (inactive)
[16]
  GI50: 4.49 µM (inactive)
[17]
  GI50: 5.66 µM (inactive)

## CC1OC(OC2C(O)COC(OC3C(C)OC(OC4C(OC(=O)[C@]56CCC(C)(C)C[C@@H]5C5=CCC7[C@@]8(C)C[C@H](O)[C@H](OC9OC(CO)C(O)C(O)C9O)[C@@](C)(CO)[C@@H]8CC[C@@]7(C)[C@]5(C)CC6)OCC(O)C4O)C(O)C3OC3OCC(O)(CO)C3O)C2O)C(O)C(O)C1O (stereo not given in full)
[1]
  GI50: 12.5 µM (inactive)
[2]
  GI50: 16.6 µM (inactive)
[3]
  GI50: 2.51 µM (inactive)
[4]
  GI50: 13.9 µM (inactive)
[5]
  GI50: 16.1 µM
[6]
  GI50: 8.73 µM (inactive)
[7]
  GI50: 17.5 µM (inactive)
[8]
  GI50: 3.33 µM (inactive)
[9]
  GI50: 15.7 µM (inactive)
[18]
  GI50: 9.31 µM (inactive)
[10]
  GI50: 18.9 µM (inactive)
[11]
  GI50: 14.7 µM (inactive)
[19]
  GI50: 13.6 µM (inactive)
[12]
  GI50: 13.3 µM (inactive)
[13]
  GI50: 17.7 µM (inactive)
[14]
  GI50: 13.8 µM (inactive)
[15]
  GI50: 14.5 µM (inactive)
[16]
  GI50: 16.3 µM (inactive)
[17]
  GI50: 3.36 µM (inactive)

## CCN(CC)CCn1c(C(C)(C)C)nc2ccccc21
[1]
  GI50: > 100 µM (inactive)
[2]
  GI50: 36.1 µM (inactive)
[3]
  GI50: > 100 µM (inactive)
[4]
  GI50: > 100 µM (inactive)
[5]
  GI50: > 100 µM
[6]
  GI50: > 100 µM (inactive)
[7]
  GI50: > 100 µM (inactive)
[8]
  GI50: > 100 µM (inactive)
[9]
  GI50: > 100 µM (inactive)
[18]
  GI50: > 100 µM (inactive)
[10]
  GI50: > 100 µM (inactive)
[11]
  GI50: > 100 µM (inactive)
[19]
  GI50: > 100 µM (inactive)
[12]
  GI50: > 10 µM (inactive)
[13]
  GI50: > 100 µM (inactive)
[14]
  GI50: > 100 µM (inactive)
[15]
  GI50: > 100 µM (inactive)
[16]
  GI50: 30.7 µM (inactive)
[17]
  GI50: > 100 µM (inactive)
